Measurements from patent publication US9832996B2, “Use of sarmentine and its analogues with an herbicide, and compositions thereof” (Marrone Bio Innovations, Inc., priority 2013, dated 2017).

Key:
Format in all cases: in vivo
Conditions in all cases: 14 days after application
Agrostis stolonifera [1] = assay: Post-emergent spray of sarmentine and paclobutrazol on grass seedlings, fresh weight and Colby synergy
Procedure: (§1) Post-emergent effects of sarmentine and paclobutrazol were evaluated on annual bluegrass (Poa annua), Kentucky bluegrass (Poa pratensis), and Creeping Bentgrass (Agrostis stolonifera). For each of the three species tested, fifteen seedlings at the 1-2 leaf stage, in 2.5 cm square pots containing plant growth mix, were sprayed with two suboptimal doses of sarmentine, two suboptimal doses of paclobutrazol, or a factorial combination thereof, as shown in Tables 1-3. A volume of 40 gal/Acre was applied, using a cabinet track sprayer. Negative controls were sprayed with water. Pots were randomly placed in a growth room at 25° C. and 50% relative humidity, and watered as necessary. Treatments were arranged in a 2 k factorial design with three repeat measures and evaluated for fresh weight at 14 days after application. Potential synergy was evaluated by calculating the ratio of observed (E) to expected (Ee) percent of control weight, according to Colby's formula. Colby (1967) Weeds 15:20-22. Percent control was calculated in relation to the untreated control (0% control) with 100% control denoting no living green tissue remaining at 14 days after treatment. An E/Ee score above 1.0 indicates a synergistic interaction between two substances.

Poa annua [2] = assay: as above
Procedure: as §1

Poa pratensis [3] = assay: as above
Procedure: as §1

Agrostis stolonifera [4] = assay: Post-emergent spray of sarmentine and amicarbazone on grass seedlings, fresh weight and Colby synergy
Procedure: as §1, with “and amicarbazone” for “and paclobutrazol”, “pratensis), Perennial ryegrass (Lolium perenne), Tall fescue (Festuca arundinacea)” for “pratensis),”, “the five” for “the three”, “of amicarbazone,” for “of paclobutrazol,”, “Tables 4-8.” for “Tables 1-3.”

Poa annua [5] = assay: as above
Procedure: as §1, with “and amicarbazone” for “and paclobutrazol”, “pratensis), Perennial ryegrass (Lolium perenne), Tall fescue (Festuca arundinacea)” for “pratensis),”, “the five” for “the three”, “of amicarbazone,” for “of paclobutrazol,”, “Tables 4-8.” for “Tables 1-3.”

Festuca arundinacea = assay: as above
Procedure: as §1, with “and amicarbazone” for “and paclobutrazol”, “pratensis), Perennial ryegrass (Lolium perenne), Tall fescue (Festuca arundinacea)” for “pratensis),”, “the five” for “the three”, “of amicarbazone,” for “of paclobutrazol,”, “Tables 4-8.” for “Tables 1-3.”

Lolium perenne = assay: as above
Procedure: as §1, with “and amicarbazone” for “and paclobutrazol”, “pratensis), Perennial ryegrass (Lolium perenne), Tall fescue (Festuca arundinacea)” for “pratensis),”, “the five” for “the three”, “of amicarbazone,” for “of paclobutrazol,”, “Tables 4-8.” for “Tables 1-3.”

Poa pratensis [6] = assay: as above
Procedure: as §1, with “and amicarbazone” for “and paclobutrazol”, “pratensis), Perennial ryegrass (Lolium perenne), Tall fescue (Festuca arundinacea)” for “pratensis),”, “the five” for “the three”, “of amicarbazone,” for “of paclobutrazol,”, “Tables 4-8.” for “Tables 1-3.”

[7] = paclobutrazol 0.042 mg/ml alone
[8] = paclobutrazol 0.481 mg/ml alone
[9] = paclobutrazol 0.0467 mg/ml alone
[10] = paclobutrazol 0.293 mg/ml alone

CC(C)(C)[C@@H](O)[C@@H](Cc1ccc(Cl)cc1)n1cncn1 (racemic) [Paclobutrazol]
% Control (Agrostis stolonifera [1]; [7]): 0.0%
AVG Fresh Weight (Agrostis stolonifera [1]; [7]): 0.76 g
% Control (Agrostis stolonifera [1]; [8]): 2.3%
AVG Fresh Weight (Agrostis stolonifera [1]; [8]): 0.65 g
% Control (Poa annua [2]; paclobutrazol 0.84 mg/ml alone): 20.8%
AVG Fresh Weight (Poa annua [2]; paclobutrazol 0.84 mg/ml alone): 0.48 g
% Control (Poa annua [2]; paclobutrazol 1.37 mg/ml alone): 7.9%
AVG Fresh Weight (Poa annua [2]; paclobutrazol 1.37 mg/ml alone): 0.55 g
% Control (Poa pratensis [3]; [9]): 14.2%
AVG Fresh Weight (Poa pratensis [3]; [9]): 0.6 g
% Control (Poa pratensis [3]; [10]): 0.0%
AVG Fresh Weight (Poa pratensis [3]; [10]): 0.7 g

CCCCC/C=C/C=C/C(=O)N1CCCC1 [Sarmentine, N-(2E,4E-Decadienoyl) pyrrolidine]
% Control (Agrostis stolonifera [4]; sarmentine 17.43 mg/ml alone): 0.0%
AVG Fresh Weight (Agrostis stolonifera [4]; sarmentine 17.43 mg/ml alone): 0.59 g
% Control (Agrostis stolonifera [4]; sarmentine 24.72 mg/ml alone): 30.8%
AVG Fresh Weight (Agrostis stolonifera [4]; sarmentine 24.72 mg/ml alone): 0.48 g
% Control (Poa annua [5]; sarmentine 12.47 mg/ml alone): 10.3%
Avg Fresh Weight (Poa annua [5]; sarmentine 12.47 mg/ml alone): 0.85 g
% Control (Poa annua [5]; sarmentine 17.11 mg/ml alone): 23.0%
Avg Fresh Weight (Poa annua [5]; sarmentine 17.11 mg/ml alone): 0.73 g
% Control (Festuca arundinacea; sarmentine 10.27 mg/ml alone): 28.4%
AVG Fresh Weight (Festuca arundinacea; sarmentine 10.27 mg/ml alone): 1.8 g
% Control (Festuca arundinacea; sarmentine 33.98 mg/ml alone): 40.4%
AVG Fresh Weight (Festuca arundinacea; sarmentine 33.98 mg/ml alone): 1.5 g
% Control (Lolium perenne; sarmentine 10 mg/ml alone): 17.7%
AVG Fresh Weight (Lolium perenne; sarmentine 10 mg/ml alone): 1.14 g
% Control (Lolium perenne; sarmentine 20 mg/ml alone): 10.6%
AVG Fresh Weight (Lolium perenne; sarmentine 20 mg/ml alone): 1.24 g
% Control (Poa pratensis [6]; sarmentine 19.15 mg/ml alone): 9.6%
AVG Fresh Weight (Poa pratensis [6]; sarmentine 19.15 mg/ml alone): 0.72 g
% Control (Poa pratensis [6]; sarmentine 23.553 mg/ml alone): 9.9%
AVG Fresh Weight (Poa pratensis [6]; sarmentine 23.553 mg/ml alone): 0.72 g
% Control (Agrostis stolonifera [1]; sarmentine 17.43 mg/ml alone): 6.4%
AVG Fresh Weight (Agrostis stolonifera [1]; sarmentine 17.43 mg/ml alone): 0.63 g
% Control (Agrostis stolonifera [1]; sarmentine 24.72 mg/ml alone): 20.6%
AVG Fresh Weight (Agrostis stolonifera [1]; sarmentine 24.72 mg/ml alone): 0.53 g
% Control (Poa annua [2]; sarmentine 12.47 mg/ml alone): 0.0%
AVG Fresh Weight (Poa annua [2]; sarmentine 12.47 mg/ml alone): 0.71 g
% Control (Poa annua [2]; sarmentine 17.114 mg/ml alone): 10.0%
AVG Fresh Weight (Poa annua [2]; sarmentine 17.114 mg/ml alone): 0.54 g
% Control (Poa pratensis [3]; sarmentine 19.15 mg/ml alone): 11.3%
AVG Fresh Weight (Poa pratensis [3]; sarmentine 19.15 mg/ml alone): 0.6 g
% Control (Poa pratensis [3]; sarmentine 23.553 mg/ml alone): 7.5%
AVG Fresh Weight (Poa pratensis [3]; sarmentine 23.553 mg/ml alone): 0.7 g

CC(C)c1nn(C(=O)NC(C)(C)C)c(=O)n1N [Amicarbazone]
% Control (Agrostis stolonifera [4]; amicarbazone 0.251 mg/ml alone): 19.6%
AVG Fresh Weight (Agrostis stolonifera [4]; amicarbazone 0.251 mg/ml alone): 0.56 g
% Control (Agrostis stolonifera [4]; amicarbazone 0.481 mg/ml alone): 29.7%
AVG Fresh Weight (Agrostis stolonifera [4]; amicarbazone 0.481 mg/ml alone): 0.49 g
% Control (Poa annua [5]; amicarbazone 1.53 mg/ml alone): 39.4%
Avg Fresh Weight (Poa annua [5]; amicarbazone 1.53 mg/ml alone): 0.57 g
% Control (Poa annua [5]; amicarbazone 2.79 mg/ml alone): 46.0%
Avg Fresh Weight (Poa annua [5]; amicarbazone 2.79 mg/ml alone): 0.51 g
% Control (Festuca arundinacea; amicarbazone 0.315 mg/ml alone): 8.1%
AVG Fresh Weight (Festuca arundinacea; amicarbazone 0.315 mg/ml alone): 2.3 g
% Control (Festuca arundinacea; amicarbazone 1.228 mg/ml alone): 10.2%
AVG Fresh Weight (Festuca arundinacea; amicarbazone 1.228 mg/ml alone): 2.2 g
% Control (Lolium perenne; amicarbazone 1.03 mg/ml alone): 30.9%
AVG Fresh Weight (Lolium perenne; amicarbazone 1.03 mg/ml alone): 0.96 g
% Control (Lolium perenne; amicarbazone 1.903 mg/ml alone): 35.7%
AVG Fresh Weight (Lolium perenne; amicarbazone 1.903 mg/ml alone): 0.89 g
% Control (Poa pratensis [6]; amicarbazone 0.31 mg/ml alone): 0.0%
AVG Fresh Weight (Poa pratensis [6]; amicarbazone 0.31 mg/ml alone): 0.84 g
% Control (Poa pratensis [6]; amicarbazone 0.544 mg/ml alone): 29.1%
AVG Fresh Weight (Poa pratensis [6]; amicarbazone 0.544 mg/ml alone): 0.56 g
